This note sets out measurements from PMC7046733, “Plantaricin NC8 αβ exerts potent antimicrobial activity against Staphylococcus spp. and enhances the effects of antibiotics” (Scientific Reports, 2020).

One data set deals with human erythrocytes. Description: Haemolysis. The format is cell-based. To be noted: isolated human erythrocytes, 1 h, 37 °C, n=3. The procedure: The haemolytic activity of the peptides was investigated by collecting blood from healthy volunteers in heparinized vacutainers. Briefly, the blood was centrifuged at 600 × g for 5 min and the erythrocyte pellet was washed three times in PBS. The cells were then suspended in PBS and added to 96-well plates (15% erythrocyte suspension/well), containing the peptides with two-fold serial dilution. The plates were incubated for 1 h at 37 °C followed by centrifugation for 5 min at 900 × g and measurement of the supernatants at 540 nm. Haemolytic activity (%) was calculated by subtracting the negative control from all values and normalization against the positive control (0.5% Triton X-100), that was set to 100%. All experiments, each in duplicate, were repeated three times.

A further data set relates to S. epidermidis 154. The data set is described as follows: Broth microdilution MIC/MBC. The format is cell-based. The procedure: (§1) The broth microdilution method was used to determine minimal inhibitory concentration (MIC) and minimal bactericidal concentration (MBC). Briefly, two-fold serial dilutions of the peptides were used and the final concentrations ranged between 0.097–50 µM. The final concentrations of the antibiotics vancomycin and teicoplanin ranged between 0.097–50 µg/ml, while rifampicin ranged between 0.0019–1 µg/ml and gentamicin 0.0097–5 µg/ml. The inhibitory and bactericidal effects of peptides together with antibiotics were studied by using the same concentration series of antibiotics with constant, sub-MIC concentrations, of the peptides in all the wells (see figure legends). The plates were then incubated at 37 °C for 20 h. […] MBC was determined as the lowest concentration where no growth of bacterial colonies (10 µl) was observed on blood-agar plates. All experiments were repeated at least three times. The combined effect of teicoplanin and PLNC8 αβ against S. epidermidis ATCC 12228 was evaluated by the microdilution checkerboard method. Briefly, two-fold serial dilutions of the antibiotics and PLNC8 αβ were prepared together in microtiter plates, either alone or in combination. The MIC values were determined visually and spectroscopically, and the fractional inhibitory concentration (ΣFIC) was calculated by the equation (MIC of PLNC8 αβ in combination/MIC of PLNC8 αβ alone) + (MIC of antibiotic in combination/MIC of antibiotic alone). Synergy was defined as ΣFIC ≤ 0.5, additive when 0.5 <ΣFIC ≤1, indifferent when 1 <ΣFIC <2 and antagonistic when ΣFIC ≥ 2.

Data set [1] relates to S. epidermidis ATCC 12228. The data set is described as follows: microbe, parasite or virus in culture. The procedure: as §1
Data set [2] has as its system S. epidermidis 157 (hGISE). The data set is described as follows: Broth microdilution MIC/MBC. The class given is cell-based. The procedure:
as §1, with “legends).” for “legends). The plates were then incubated at 37 °C for 20 h.”
A general note: Broth dilution looks for growth in wells or tubes with falling amounts of substance.

Data set [3] has as its system S. aureus CCUG 35601 (MRSA). The data set is described as follows: Broth microdilution MIC/MBC. The class given is cell-based. The procedure:
as §1, with “legends).” for “legends). The plates were then incubated at 37 °C for 20 h.”

For data set [4], the system named is S. epidermidis 126 (hGISE). Description: Broth microdilution MIC/MBC. The format is cell-based. The procedure: as §1, with “legends).” for “legends). The plates were then incubated at 37 °C for 20 h.”
[5] abbreviates: Staphylococcus epidermidis, 154, 20 h, antibiotic alone, 20 h, read-out: MBC.
The mark [6] stands for this setting: Staphylococcus epidermidis, ATCC12228, 20 h.
Where [7] appears, read: S. epidermidis 157, antibiotic alone, after 24 h.
Where [8] appears, read: MRSA, antibiotic alone, after 24 h.
[9] abbreviates: S. epidermidis 126, antibiotic alone, after 24 h.
The mark [10] stands for this setting: antibiotic alone, broth microdilution, 37 °C, 20 h.
The mark [11] stands for this setting: Staphylococcus epidermidis, 24 h.
Setting [12] is: Staphylococcus epidermidis, 154, 20 h.

Where two headings read alike, the source gives them in different places. Residues, ends and D or L forms follow the SMILES beside them.

Turning to `CC[C@H](C)[C@H](NC(=O)CNC(=O)[C@H](CC(C)C)NC(=O)[C@@H](NC(=O)[C@@H](N)Cc1ccc(O)cc1)[C@@H](C)O)C(=O)N[C@@H](CCCCN)C(=O)N[C@H](C(=O)N[C@@H](CC(C)C)C(=O)N[C@@H](Cc1c[nH]c2ccccc12)C(=O)N[C@@H](CO)C(=O)N[C@@H](C)C(=O)N[C@@H](Cc1ccc(O)cc1)C(=O)N[C@@H](CCCCN)C(=O)N[C@@H](Cc1c[nH]cn1)C(=O)N[C@@H](CCCNC(=N)N)C(=O)N[C@@H](CCCCN)C(=O)N[C@H](C(=O)N[C@H](C(=O)N[C@@H](CCC(=O)O)C(=O)N[C@@H](CCCCN)C(=O)N[C@@H](CO)C(=O)N[C@@H](Cc1ccccc1)C(=O)N[C@@H](CC(N)=O)C(=O)N[C@@H](CCCCN)C(=O)NCC(=O)N[C@@H](Cc1ccccc1)C(=O)N[C@@H](Cc1ccc(O)cc1)C(=O)N[C@@H](Cc1c[nH]cn1)C(=O)O)[C@@H](C)CC)[C@@H](C)O)[C@@H](C)CC` [β7-34] (H-YTLGIKILWSAYKHRKTIEKSFNKGFYH-OH), the “cytotoxic at relevant concentrations (<50 µM), determined by haemolytic activity” value (from here on “cytotoxic at relevant concentrations”) in the data set with human erythrocytes is “nor the truncated α1–22, α1–15, β7–34, β7–20 and β1–20 were cytotoxic”.
Same read-out and setting: to `CC(C)C[C@H](NC(=O)[C@H](Cc1ccc(O)cc1)NC(=O)[C@H](Cc1ccc(O)cc1)NC(=O)CNC(=O)[C@H](Cc1c[nH]c2ccccc12)NC(=O)[C@H](CO)NC(=O)[C@H](CO)NC(=O)[C@H](Cc1c[nH]c2ccccc12)NC(=O)[C@H](CC(C)C)NC(=O)[C@H](CCCCN)NC(=O)[C@@H](NC(=O)[C@@H](NC(=O)[C@H](CC(C)C)NC(=O)[C@@H](N)CC(=O)O)[C@@H](C)O)[C@@H](C)O)C(=O)NCC(=O)O` [α1-15] (H-DLTTKLWSSWGYYLG-OH) belongs “nor the truncated α1–22, α1–15, β7–34, β7–20 and β1–20 were cytotoxic”.
The same measure, in the same setting: to `CC[C@H](C)[C@H](NC(=O)CNC(=O)[C@H](CC(C)C)NC(=O)[C@@H](NC(=O)[C@H](Cc1ccc(O)cc1)NC(=O)[C@@H](NC(=O)[C@H](CO)NC(=O)[C@@H](NC(=O)[C@@H]1CCCN1C(=O)[C@@H](NC(=O)[C@@H](N)CO)C(C)C)[C@@H](C)O)C(C)C)[C@@H](C)O)C(=O)N[C@@H](CCCCN)C(=O)N[C@H](C(=O)N[C@@H](CC(C)C)C(=O)N[C@@H](Cc1c[nH]c2ccccc12)C(=O)N[C@@H](CO)C(=O)N[C@@H](C)C(=O)N[C@@H](Cc1ccc(O)cc1)C(=O)N[C@@H](CCCCN)C(=O)N[C@@H](Cc1c[nH]cn1)C(=O)O)[C@@H](C)CC` [β1-20] (H-SVPTSVYTLGIKILWSAYKH-OH) belongs “nor the truncated α1–22, α1–15, β7–34, β7–20 and β1–20 were cytotoxic”.
As for `CO[C@H]1/C=C/O[C@@]2(C)Oc3c(C)c(O)c4c(O)c(c(/C=N/N5CCN(C)CC5)c(O)c4c3C2=O)NC(=O)/C(C)=C\C=C\[C@H](C)[C@H](O)[C@@H](C)[C@@H](O)[C@@H](C)[C@H](OC(C)=O)[C@@H]1C` [Rifampicin, rifampicin], the MBC in the data set on S. epidermidis 154 (setting [5]) stood at 0.05 µg/mL; in the data set on S. epidermidis 154 (antibiotic alone, 20 h), 0.063 µg/mL; in data set [1] (setting [6]), 0.063 µg/mL. Also, in data set [1] (setting [6]), the MIC amounted to 0.063 µg/mL.
On to teicoplanin, for which the MBC came out at 25 µg/mL in data set [2] (setting [7]); 3.1 µg/mL in data set [3] (setting [8]); 6.25 µg/mL in data set [4] (setting [9]); 1.5 µg/mL in the data set with S. epidermidis 154 (antibiotic alone, 20 h); 1.5 µg/mL in data set [1] (setting [10]). Moreover, the MIC was 12.5 µg/mL in data set [2] (setting [7]); 0.78 µg/mL in data set [3] (setting [8]); 3.1 µg/mL in data set [4] (setting [9]); 1.5 µg/mL with S. epidermidis 154 (antibiotic alone, 20 h); 1.5 µg/mL in data set [1] (setting [10]).
As to `CC[C@H](C)[C@H](NC(=O)CNC(=O)[C@H](CC(C)C)NC(=O)[C@@H](NC(=O)[C@@H](N)Cc1ccc(O)cc1)[C@@H](C)O)C(=O)N[C@@H](CCCCN)C(=O)N[C@H](C(=O)N[C@@H](CC(C)C)C(=O)N[C@@H](Cc1c[nH]c2ccccc12)C(=O)N[C@@H](CO)C(=O)N[C@@H](C)C(=O)N[C@@H](Cc1ccc(O)cc1)C(=O)N[C@@H](CCCCN)C(=O)N[C@@H](Cc1c[nH]cn1)C(=O)O)[C@@H](C)CC` [β7-20] (H-YTLGIKILWSAYKH-OH), in the data set with human erythrocytes, the “cytotoxic at relevant concentrations” value was “nor the truncated α1–22, α1–15, β7–34, β7–20 and β1–20 were cytotoxic”.
Turning to `CC(C)C[C@H](NC(=O)[C@H](CC(N)=O)NC(=O)[C@H](Cc1c[nH]c2ccccc12)NC(=O)[C@H](CCCNC(=N)N)NC(=O)[C@H](C)NC(=O)[C@H](CCCCN)NC(=O)[C@H](CCCCN)NC(=O)CNC(=O)[C@H](CC(C)C)NC(=O)[C@H](Cc1ccc(O)cc1)NC(=O)[C@H](Cc1ccc(O)cc1)NC(=O)CNC(=O)[C@H](Cc1c[nH]c2ccccc12)NC(=O)[C@H](CO)NC(=O)[C@H](CO)NC(=O)[C@H](Cc1c[nH]c2ccccc12)NC(=O)[C@H](CC(C)C)NC(=O)[C@H](CCCCN)NC(=O)[C@@H](NC(=O)[C@@H](NC(=O)[C@H](CC(C)C)NC(=O)[C@@H](N)CC(=O)O)[C@@H](C)O)[C@@H](C)O)C(=O)O` [α1-22] (H-DLTTKLWSSWGYYLGKKARWNL-OH), the “cytotoxic at relevant concentrations” value with human erythrocytes was “nor the truncated α1–22, α1–15, β7–34, β7–20 and β1–20 were cytotoxic”.
Consider `CNC(C)C1CCC(N)C(OC2C(N)CC(N)C(OC3OCC(C)(O)C(NC)C3O)C2O)O1` (centres unmarked) [Gentamicin, gentamicin], for which the MBC is > 100 µg/mL in the data set on S. epidermidis 154 (setting [5]) and 0.31 µg/mL in data set [1] (setting [6]). Further, the MIC with S. epidermidis 154 (Staphylococcus epidermidis, 154, 20 h, antibiotic alone, 20 h, read-out: MIC) is > 100 µg/mL; in data set [1] (setting [6]) it was 0.31 µg/mL.
Consider `CN[C@H](CC(C)C)C(=O)N[C@H]1C(=O)N[C@@H](CC(N)=O)C(=O)N[C@H]2C(=O)N[C@H]3C(=O)N[C@H](C(=O)N[C@H](C(=O)O)c4cc(O)cc(O)c4-c4cc3ccc4O)[C@H](O)c3ccc(c(Cl)c3)Oc3cc2cc(c3O[C@@H]2O[C@H](CO)[C@@H](O)[C@H](O)[C@H]2O[C@H]2C[C@](C)(N)[C@H](O)[C@H](C)O2)Oc2ccc(cc2Cl)[C@H]1O` [Vancomycin, vancomycin], for which the MBC in data set [2] (setting [11]) worked out at 6.25 µg/mL; in data set [3] (Staphylococcus aureus, 24 h) it was 3.1 µg/mL; in data set [4] (setting [11]), 3.1 µg/mL; with S. epidermidis 154 (setting [12]), 3.1 µg/mL; in data set [1] (setting [6]), 3.1 µg/mL. The MIC in data set [2] (setting [11]) was found to be 6.25 µg/mL; in data set [4] (setting [11]), 3.1 µg/mL; in the data set with S. epidermidis 154 (setting [12]), 1.5 µg/mL; in data set [1] (setting [6]), 1.5 µg/mL.
